{"source": "ChEMBL document CHEMBL4616595", "about": "“Targeted suppression of metastasis regulatory transcription factor SOX2 in various cancer cell lines using a sequence-specific designer pyrrole-imidazole polyamide” (Bioorg Med Chem, 2020)", "key": {"SOX2 promoter DNA [1]": {"system": "SOX2 promoter DNA", "assay": "Binding affinity to SOX2 promoter 5'-CTTTGTT-3' DNA in human SW620 cells assessed as down regulation of JAG1 mRNA expression at 2 uM incubated for 48 hrs by qRT-PCR analysis", "assay_type": "cell-based", "conditions": "SW-620"}, "SOX2 promoter DNA [2]": {"system": "SOX2 promoter DNA", "assay": "Binding affinity to SOX2 promoter 5'-CTTTGTT-3' DNA in human ES2 cells assessed as reduction in SOX2 mRNA expression incubated for 48 hrs by qRT-PCR analysis", "assay_type": "cell-based"}, "MKN-45 [3]": {"system": "MKN-45", "assay": "Cytotoxicity against human MKN45 cells assessed as reduction in cell viability incubated for 48 hrs by MTT assay", "assay_type": "functional, cell-based"}, "SOX2 promoter DNA [4]": {"system": "SOX2 promoter DNA", "assay": "Binding affinity to SOX2 promoter 5'-CTTTGTT-3' DNA in human SW620 cells assessed as down regulation of CDC42 mRNA expression incubated for 48 hrs by qRT-PCR analysis", "assay_type": "cell-based", "conditions": "SW-620"}, "SOX2 promoter DNA [5]": {"system": "SOX2 promoter DNA", "assay": "Binding affinity to SOX2 promoter 5'-CTTTGTT-3' DNA in human U2OS cells assessed as reduction in SOX2 protein level incubated for 48 hrs by immunostaining based FACS analysis", "assay_type": "cell-based"}, "SOX2 promoter DNA [6]": {"system": "SOX2 promoter DNA", "assay": "Binding affinity to SOX2 promoter 5'-CTTTGTT-3' DNA in human SW620 cells assessed as upregulation of GSK3-beta mRNA expression incubated for 48 hrs by qRT-PCR analysis", "assay_type": "cell-based", "conditions": "SW-620"}, "SOX2 promoter DNA [7]": {"system": "SOX2 promoter DNA", "assay": "Binding affinity to SOX2 promoter 5'-CTTTGTT-3' DNA in human SW620 cells assessed as upregulation of CDKN2B mRNA expression incubated for 48 hrs by qRT-PCR analysis", "assay_type": "cell-based", "conditions": "SW-620"}, "SOX2 promoter DNA [8]": {"system": "SOX2 promoter DNA", "assay": "Binding affinity to SOX2 promoter 5'-CTTTGTT-3' DNA in human SW620 cells assessed as reduction in SOX2 protein level by measuring SOX2 level at 5 uM incubated for 48 hrs by immunostaining based FACS analysis (reference value: 55.9%)", "assay_type": "cell-based", "design": "scale not given: the % may be the effect or the level left", "conditions": "SW-620"}, "SOX2 promoter DNA [9]": {"system": "SOX2 promoter DNA", "assay": "Binding affinity to SOX2 promoter 5'-CTTTGTT-3' DNA in human SW620 cells assessed as down regulation of ALDH1A1 gene expression at 2 uM incubated for 48 hrs by Cy3-labelled cRNA-based microarray analysis", "assay_type": "cell-based", "conditions": "SW-620"}, "U2OS [10]": {"system": "U2OS", "assay": "Cell cycle arrest in human U2OS cells assessed as reduction in accumulation at S phase at 2 uM to 5 uM after 48 hrs by propidium iodide staining based flow cytometry analysis", "assay_type": "functional"}, "SW-620 [11]": {"system": "SW-620", "assay": "Antimigratory activity in human SW620 cells assessed as reduction in cell migration at 5 uM incubated for 24 hrs by Calcein AM staining based fluorescence microscopic analysis relative to untreated control", "assay_type": "functional"}, "SW-620 [12]": {"system": "SW-620", "assay": "Cell cycle arrest in human SW620 cells assessed as reduction in accumulation at G2/M phase at 2 uM to 5 uM after 48 hrs by propidium iodide staining based flow cytometry analysis", "assay_type": "functional"}, "MKN-45 [13]": {"system": "MKN-45", "assay": "Cell cycle arrest in human MKN45 cells assessed as increase in accumulation at sub-G1/G1 phase at 2 uM to 5 uM after 48 hrs by propidium iodide staining based flow cytometry analysis", "assay_type": "functional"}, "SW-620 [14]": {"system": "SW-620", "assay": "Cytotoxicity against human SW620 cells assessed as reduction in cell viability incubated for 48 hrs by MTT assay", "assay_type": "functional, cell-based"}, "B16-F10": {"system": "B16-F10", "assay": "Anti-metastasis activity in mouse B16/F10 cells implanted in C57BL/6N mouse assessed as reduction in lung metastatic nodules at 1 mg/kg ip dosed every third day and measured on day 21 relative to untreated control", "assay_type": "functional"}, "SW-620 [15]": {"system": "SW-620", "assay": "Antiinvasive activity in human SW620 cells assessed as reduction in cell invasion at 5 uM incubated for 72 hrs by crystal violet staining based assay relative to untreated control", "assay_type": "functional"}, "SOX2 promoter DNA [16]": {"system": "SOX2 promoter DNA", "assay": "Binding affinity to SOX2 promoter 5'-CTTTGTT-3' DNA in human SW620 cells assessed as reduction in SOX2 protein level by measuring SOX2 level at 2 uM incubated for 48 hrs by immunostaining based FACS analysis (reference value: 55.9%)", "assay_type": "cell-based", "design": "scale not given: the % may be the effect or the level left", "conditions": "SW-620"}, "SW-620 [17]": {"system": "SW-620", "assay": "Up regulation of caspase-3 mRNA expression in human SW620 cells incubated for 48 hrs by qRT-PCR analysis", "assay_type": "functional, cell-based"}, "SOX2 promoter DNA [18]": {"system": "SOX2 promoter DNA", "assay": "Binding affinity to SOX2 promoter 5'-CTTTGTT-3' DNA in human SW620 cells assessed as downregulation WNT2B mRNA expression incubated for 48 hrs by qRT-PCR analysis", "assay_type": "cell-based", "conditions": "SW-620"}, "SOX2 promoter DNA [19]": {"system": "SOX2 promoter DNA", "assay": "Binding affinity to SOX2 promoter 5'-CTTTGTT-3' DNA in human SW620 cells assessed as down regulation of VIM mRNA expression at 2 uM incubated for 48 hrs by qRT-PCR analysis", "assay_type": "cell-based", "conditions": "SW-620"}, "SOX2 promoter DNA [20]": {"system": "SOX2 promoter DNA", "assay": "Binding affinity to SOX2 promoter 5'-CTTTGTT-3' DNA in human MCF7 cells assessed as reduction in SOX2 protein level incubated for 48 hrs by immunostaining based FACS analysis", "assay_type": "cell-based"}, "SOX2 promoter DNA [21]": {"system": "SOX2 promoter DNA", "assay": "Binding affinity to SOX2 promoter 5'-CTTTGTT-3' DNA in human SW620 cells assessed as down regulation of stemness associated KLF4 mRNA expression at 2 uM incubated for 48 hrs by qRT-PCR analysis", "assay_type": "cell-based", "conditions": "SW-620"}, "SOX2 promoter DNA [22]": {"system": "SOX2 promoter DNA", "assay": "Binding affinity to SOX2 promoter 5'-CTTTGTT-3' DNA in mouse Hepa1 cells assessed as reduction in SOX2 mRNA expression incubated for 48 hrs by qRT-PCR analysis", "assay_type": "cell-based"}, "SOX2 promoter DNA [23]": {"system": "SOX2 promoter DNA", "assay": "Binding affinity to SOX2 promoter 5'-CTTTGTT-3' DNA in human SW620 cells assessed as upregulation of APC mRNA expression incubated for 48 hrs by qRT-PCR analysis", "assay_type": "cell-based", "conditions": "SW-620"}, "SOX2 promoter DNA [24]": {"system": "SOX2 promoter DNA", "assay": "Binding affinity to SOX2 promoter 5'-CTTTGTT-3' DNA in human SW620 cells assessed as down regulation of PROM1 gene expression at 2 uM incubated for 48 hrs by Cy3-labelled cRNA-based microarray analysis", "assay_type": "cell-based", "conditions": "SW-620"}, "SOX2 promoter DNA [25]": {"system": "SOX2 promoter DNA", "assay": "Binding affinity to SOX2 promoter 5'-CTTTGTT-3' DNA in human SW620 cells assessed as down regulation of stemness associated PTCH1 mRNA expression at 2 uM incubated for 48 hrs by qRT-PCR analysis", "assay_type": "cell-based", "conditions": "SW-620"}, "SOX2 promoter DNA [26]": {"system": "SOX2 promoter DNA", "assay": "Binding affinity to SOX2 promoter 5'-CTTTGTT-3' DNA in human SW620 cells assessed as downregulation S100A4 mRNA expression incubated for 48 hrs by qRT-PCR analysis", "assay_type": "cell-based", "conditions": "SW-620"}, "MCF7": {"system": "MCF7", "assay": "Cytotoxicity against human MCF7 cells assessed as reduction in cell viability incubated for 48 hrs by MTT assay", "assay_type": "functional, cell-based"}, "SOX2 promoter DNA [27]": {"system": "SOX2 promoter DNA", "assay": "Binding affinity to SOX2 promoter 5'-CTTTGTT-3' DNA in human SW620 cells assessed as down regulation of GRB2 mRNA expression incubated for 48 hrs by qRT-PCR analysis", "assay_type": "cell-based", "conditions": "SW-620"}, "SOX2 promoter DNA [28]": {"system": "SOX2 promoter DNA", "assay": "Binding affinity to SOX2 promoter 5'-CTTTGTT-3' DNA in human SW620 cells assessed as down regulation of GLI3 gene expression at 2 uM incubated for 48 hrs by Cy3-labelled cRNA-based microarray analysis", "assay_type": "cell-based", "conditions": "SW-620"}, "SOX2 promoter DNA [29]": {"system": "SOX2 promoter DNA", "assay": "Binding affinity to SOX2 promoter 5'-CTTTGTT-3' DNA in human SW620 cells assessed as downregulation of SNAIL2 mRNA expression at 2 uM incubated for 48 hrs by qRT-PCR analysis", "assay_type": "cell-based", "conditions": "SW-620"}, "U2OS [30]": {"system": "U2OS", "assay": "Cell cycle arrest in human U2OS cells assessed as increase in accumulation at sub-G1/G1 phase at 2 uM to 5 uM after 48 hrs by propidium iodide staining based flow cytometry analysis", "assay_type": "functional"}}, "note": "Activity calls are given as the source filed them. No cut-off for these calls is given here."}
{"smiles": "CC(=O)Nc1cc(C(=O)Nc2cc(C(=O)Nc3cc(C(=O)NCCC(=O)Nc4cn(C)c(C(=O)Nc5cc(C(=O)NCCCC(=O)Nc6cc(C(=O)Nc7cc(C(=O)NCCC(=O)Nc8cc(C(=O)Nc9cc(C(=O)Nc%10cn(C)c(C(=O)NCCCN(C)C)n%10)n(C)c9)n(C)c8)n(C)c7)n(C)c6)n(C)c5)n4)n(C)c3)n(C)c2)n(C)c1", "values": [{"measurement": "Activity", "setting": "SOX2 promoter DNA [1]", "value": "Active"}, {"measurement": "Activity", "setting": "SOX2 promoter DNA [2]", "value": "Active"}, {"measurement": "Activity", "setting": "MKN-45 [3]", "value": "Dose-dependent effect"}, {"measurement": "Activity", "setting": "SOX2 promoter DNA [4]", "value": "Active"}, {"measurement": "Activity", "setting": "SOX2 promoter DNA [5]", "value": "Dose-dependent effect"}, {"measurement": "Activity", "setting": "SOX2 promoter DNA [6]", "value": "Active"}, {"measurement": "Activity", "setting": "SOX2 promoter DNA [7]", "value": "Active"}, {"measurement": "Activity", "setting": "SOX2 promoter DNA [8]", "value": 28.1, "unit": "%"}, {"measurement": "Activity", "setting": "SOX2 promoter DNA [9]", "value": "Active"}, {"measurement": "Activity", "setting": "U2OS [10]", "value": "Active"}, {"measurement": "fold change (FC)", "setting": "SW-620 [11]", "value": 5}, {"measurement": "Activity", "setting": "SW-620 [12]", "value": "Active"}, {"measurement": "Activity", "setting": "MKN-45 [13]", "value": "Active"}, {"measurement": "Activity", "setting": "SW-620 [14]", "value": "Dose-dependent effect"}, {"measurement": "fold change (FC)", "setting": "B16-F10", "value": 4}, {"measurement": "fold change (FC)", "setting": "SW-620 [15]", "value": 4}, {"measurement": "Activity", "setting": "SOX2 promoter DNA [16]", "value": 37.4, "unit": "%"}, {"measurement": "Activity", "setting": "SW-620 [17]", "value": "Active"}, {"measurement": "Activity", "setting": "SOX2 promoter DNA [18]", "value": "Active"}, {"measurement": "Activity", "setting": "SOX2 promoter DNA [19]", "value": "Active"}, {"measurement": "Activity", "setting": "SOX2 promoter DNA [20]", "value": "Dose-dependent effect"}, {"measurement": "Activity", "setting": "SOX2 promoter DNA [21]", "value": "Active"}, {"measurement": "Activity", "setting": "SOX2 promoter DNA [22]", "value": "Active"}, {"measurement": "Activity", "setting": "SOX2 promoter DNA [23]", "value": "Active"}, {"measurement": "Activity", "setting": "SOX2 promoter DNA [24]", "value": "Active"}, {"measurement": "Activity", "setting": "SOX2 promoter DNA [25]", "value": "Active"}, {"measurement": "Activity", "setting": "SOX2 promoter DNA [26]", "value": "Active"}, {"measurement": "Activity", "setting": "MCF7", "value": "Dose-dependent effect"}, {"measurement": "Activity", "setting": "SOX2 promoter DNA [27]", "value": "Active"}, {"measurement": "Activity", "setting": "SOX2 promoter DNA [28]", "value": "Active"}, {"measurement": "Activity", "setting": "SOX2 promoter DNA [29]", "value": "Active"}, {"measurement": "Activity", "setting": "U2OS [30]", "value": "Active"}]}
